Patent publication US9963446B2, “Oxepan-2-yl-pyrazol-4-yl-heterocyclyl-carboxamide compounds and methods of use” (Genentech, Inc., priority 2014, dated 2018)

Tests used:
[1] = target: PIM1 (Homo sapiens (Human), UniProt P11309); experiment: Pim kinase binding activity (PIM1 LC3K Ki); type: biochemical; conditions: 20 pM PIM1, 10 μM ATP, 90 minutes
Protocol: PIM-1, -2, and -3 enzymes were generated as fusion proteins expressed in bacteria and purified by IMAC column chromatography (Sun, X., Chiu, J. F., and He, Q. Y. (2005) Expert Rev. Proteomics, 2:649-657). A fluorescent-labeled Pim-specific peptide substrate, was custom synthesized by American Peptide Company (Sunnyvale, Calif.). Reaction Buffer contained 10 mM HEPES, pH 7.2, 10 mM MgCl2, 0.01% Tween 20, 2 mM DTT. Termination Buffer contained 190 mM HEPES, pH 7.2, 0.015% Brij-35, 0.2% Coating Reagent 3 (Caliper Life Sciences, Hopkinton, Mass.), 20 mM EDTA. Separation Buffer contained 100 mM HEPES, pH 7.2, 0.015% Brij-35, 0.1% Coating Reagent 3, 1:200 Coating Reagent 8 (Caliper Life Sciences, Hopkinton, Mass.), 10 mM EDTA and 5% DMSO.
PIM reactions were carried out in a final volume of 10 μL per well in a 384-well plate. A standard enzymatic reaction, initiated by the addition of 5 μL 2×ATP and test compound to 5 μL of 2× enzyme and FAM-peptide, contained 20 pM PIM1, 50 pM PIM2, or 55 pM PIM3, 1 μM FAM-peptide, and 10 μM ATP, in Reaction Buffer. After 90 minutes of incubation at room temperature, the phosphorylation reaction was stopped by the addition of 10 μL Termination Buffer. The product and substrate in each independent reaction were separated on a 12-sipper microfluidic chip (Caliper Life Sciences, Hopkinton, Mass.) run on a Caliper LC3000® (Caliper Life Sciences, Hopkinton, Mass.). The separation of product and substrate was optimized by choosing voltages and pressure using Caliper's Optimizer software (Hopkinton, Mass.). The separation conditions used a downstream voltage of −500V, an upstream voltage of −2150V, and a screening pressure of −1.2 psi. The product and substrate fluorophore were excited at 488 nm and detected at 530 nm. Substrate conversion was calculated from the electropherogram using HTS Well Analyzer software (Caliper Life Sciences, Hopkinton, Mass.). Ki values for the test compound were calculated. See Table 1 for representative PIM1 LC3K Ki in micromolar values of exemplary compounds.

[2] = test system: BaF3 PIM1 cells; experiment: In vitro cell proliferation, BaF3 transfected with PIM1; type: cell-based, murine; conditions: Mus musculus; BaF3 PIM1 line, incubated overnight; read-out: Prolif BaF3 PIM1 (IC50)
Protocol: (§1) BaF3 parental line was obtained from the DSMZ repository. BaF3 lines transfected with PIM1 or PIM2 were generated. Mouse IL-3 was purchased from R&D Systems. G418 was purchased from Clontech. Media for BaF3 parental line contained RPMI, 10% FBS, 2 mM L-Glutamine, 2 ng/mL mIL-3. Media for BaF3 PIM1 & 2 lines contained RPMI, 10% FBS, 2 mM L-Glutamine, […]. Media for MM1.S (multiple myeloma cells) line contained RPMI, 10% FBS, 2 mM L-Glutamine.
(§2) BaF3, a murine interleukin-3 dependent pro-B cell line, parental cells, BaF3 PIM1 cells, BaF3 PIM2 cells, and MM1.S (multiple myeloma) cells were seeded at 2 k/well, 5 k/well, 5 k/well, and 10 k/well respectively, in a 384-well plate, at 45 μL/well. Test compound was added at 5 μL/well. BaF3 cells (parental and transfected) were incubated overnight, while MM1.S cells were incubated for 72 hours at 37° C., 5% CO2. CELL TITER GLO® Reagent (Promega) was added at 50 μL/well, the plates were incubated for 30 minutes, and their luminescence read on an HT Analyst. IC50/EC50 values for the test compound were calculated.

[3] = test system: MM1.S (multiple myeloma) cells; experiment: In vitro cell proliferation, MM1.S (CELL TITER GLO); type: cell-based; conditions: Homo sapiens, 72 hours, read-out: Prolif MM1S ATP (EC50)
Protocol: as §1, §2

[4] = test system: BaF3 parental cells; experiment: In vitro cell proliferation, BaF3 parental line + IL3; type: cell-based, murine; conditions: Mus musculus; BaF3 parental line with mIL-3, incubated overnight; read-out: Prolif BaF3 + IL3 (IC50)
Protocol: as §1, §2

Sequence of PIM1 (P11309 whole entry, the tested form may be a part): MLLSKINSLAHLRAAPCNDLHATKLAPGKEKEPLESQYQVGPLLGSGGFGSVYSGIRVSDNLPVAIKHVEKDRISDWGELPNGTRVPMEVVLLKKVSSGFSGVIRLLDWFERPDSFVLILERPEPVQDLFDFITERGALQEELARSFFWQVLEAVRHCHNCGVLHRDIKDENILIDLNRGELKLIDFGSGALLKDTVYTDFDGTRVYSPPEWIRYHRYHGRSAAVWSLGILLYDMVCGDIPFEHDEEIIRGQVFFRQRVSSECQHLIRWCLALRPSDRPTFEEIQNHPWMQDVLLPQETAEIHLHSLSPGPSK

SMILES | Ki [1] | IC50 [2] | EC50 [3] | IC50 [4]
C[C@H](F)c1cc(F)c(-c2nc(C(=O)Nc3cnn(C)c3[C@@H]3CC[C@@H](N)[C@H](F)CO3)cs2)c(F)c1 [Example 101, N-(5-((2S,5R,6S)-5-amino-6-fluorooxepan-2-yl)-1-methyl-1H-pyrazol-4-yl)-2-(2,6-difluoro-4-((S)-1-fluoroethyl)phenyl)thiazole-4-carboxamide] | 0.002 nM | 24.8 nM | 441 nM | 7100 nM
Cn1ncc(NC(=O)c2csc(-c3c(O)cccc3F)n2)c1[C@@H]1CC[C@@H](N)[C@H](F)CO1 [Example 102, N-[5-[(2S,5R,6S)-5-amino-6-fluoro-oxepan-2-yl]-1-methyl-pyrazol-4-yl]-2-(2-fluoro-6-hydroxy-phenyl)thiazole-4-carboxamide] | 0.121 nM | 164 nM | 702 nM | 9100 nM
N[C@H]1CC[C@H](c2c(NC(=O)c3csc(-c4c(F)cccc4F)n3)cnn2C2CC2)OC[C@@H]1F [Example 103, N-[5-[(2R,5S,6R)-5-amino-6-fluoro-oxepan-2-yl]-1-cyclopropyl-pyrazol-4-yl]-2-(2,6-difluorophenyl)thiazole-4-carboxamide] | 0.18 nM | 145 nM | 731 nM | 12000 nM
Cn1ncc(NC(=O)c2csc(-c3ccc4c(c3)CCO4)n2)c1[C@@H]1CC[C@@H](N)[C@H](F)CO1 [Example 104, N-[5-[(2S,5R,6S)-5-amino-6-fluoro-oxepan-2-yl]-1-methyl-pyrazol-4-yl]-2-(2,3-dihydrobenzofuran-5-yl)thiazole-4-carboxamide] | 0.104 nM | 98.5 nM | 544 nM | 13200 nM
Cn1ncc(NC(=O)c2csc(-c3cnccn3)n2)c1[C@@H]1CC[C@@H](N)[C@H](F)CO1 [Example 105, N-[5-[(2S,5R,6S)-5-amino-6-fluoro-oxepan-2-yl]-1-methyl-pyrazol-4-yl]-2-pyrazin-2-yl-thiazole-4-carboxamide] | 0.095 nM | 142 nM | 473 nM | > 25000 nM
C[C@@H](F)c1cc(F)c(-c2nc(C(=O)Nc3cnn(C)c3[C@@H]3CC[C@@H](N)[C@H](F)CO3)cs2)c(F)c1 [Example 106, N-(5-((2S,5R,6S)-5-amino-6-fluorooxepan-2-yl)-1-methyl-1H-pyrazol-4-yl)-2-(2,6-difluoro-4-((R)-1-fluoroethyl)phenyl)thiazole-4-carboxamide] | 0.015 nM | 29.9 nM | 235 nM | 8600 nM
CO[C@H]1[C@H](C)O[C@@H](c2c(NC(=O)c3csc(-c4c(F)cccc4F)n3)cnn2C)CC[C@@H]1N [Example 107, N-(5-((2R,5S,6R,7S)-5-amino-6-methoxy-7-methyloxepan-2-yl)-1-methyl-1H-pyrazol-4-yl)-2-(2,6-difluorophenyl)thiazole-4-carboxamide] | 0.1 nM | 264 nM | 5800 nM | 20700 nM
COc1cc(F)c(-c2nc(C(=O)Nc3cnn(C)c3[C@@H]3CC[C@@H](N)[C@H](F)CO3)cs2)cc1Cl [Example 108, N-[5-[(2S,5R,6S)-5-amino-6-fluoro-oxepan-2-yl]-1-methyl-pyrazol-4-yl]-2-(5-chloro-2-fluoro-4-methoxy-phenyl)thiazole-4-carboxamide] | 0.042 nM | 80.5 nM | 490 nM | 1900 nM
Cn1ncc(NC(=O)c2csc(-c3cc4[nH]ncc4cc3F)n2)c1[C@@H]1CC[C@@H](N)[C@H](F)CO1 [Example 109, N-[5-[(2S,5R,6S)-5-amino-6-fluoro-oxepan-2-yl]-1-methyl-pyrazol-4-yl]-2-(5-fluoro-1H-indazol-6-yl)thiazole-4-carboxamide] | 0.019 nM | 39.4 nM | 287 nM | 3100 nM
Cc1cnc(-c2nc(C(=O)Nc3cnn(C)c3[C@@H]3CC[C@@H](N)[C@H](F)CO3)cs2)cn1 [Example 110, N-[5-[(2S,5R,6S)-5-amino-6-fluoro-oxepan-2-yl]-1-methyl-pyrazol-4-yl]-2-(5-methylpyrazin-2-yl)thiazole-4-carboxamide] | 0.018 nM | 63.8 nM | 148 nM | 9200 nM
Cn1ncc(NC(=O)c2csc(-c3c(F)cc4c(c3F)OCC[C@@H]4O)n2)c1[C@@H]1CC[C@@H](N)[C@H](F)CO1 [Example 111, N-(5-((2S,5R,6S)-5-amino-6-fluorooxepan-2-yl)-1-methyl-1H-pyrazol-4-yl)-2-((S)-6,8-difluoro-4-hydroxychroman-7-yl)thiazole-4-carboxamide] |  | 96.2 nM | 1500 nM | > 25000 nM
N[C@@H]1CC[C@@H](c2c(NC(=O)c3csc(-c4c(F)cccc4F)n3)cnn2CC(F)F)OC[C@H]1F [Example 115, N-(5-((2S,5R,6S)-5-amino-6-fluorooxepan-2-yl)-1-(2,2-difluoroethyl)-1H-pyrazol-4-yl)-2-(2,6-difluorophenyl)thiazole-4-carboxamide] |  | 29.3 nM | 181 nM | 5500 nM
N[C@H]1CC[C@H](c2c(NC(=O)c3csc(-c4c(F)cccc4F)n3)cnn2CC(F)F)OC[C@@H]1F [Example 116, N-(5-((2R,5S,6R)-5-amino-6-fluorooxepan-2-yl)-1-(2,2-difluoroethyl)-1H-pyrazol-4-yl)-2-(2,6-difluorophenyl)thiazole-4-carboxamide] |  | 2750 nM | 2700 nM | 10500 nM
C[C@@H]1O[C@H](c2c(NC(=O)c3csc(-c4c(F)cccc4F)n3)cnn2C)CC[C@@H](N)[C@@H]1F [Example 124, N-[5-[(2S,5R,6S,7S)-5-amino-6-fluoro-7-methyl-oxepan-2-yl]-1-methyl-pyrazol-4-yl]-2-(2,6-difluorophenyl)thiazole-4-carboxamide] | 0.051 nM |  | 54 nM | 
Cn1ncc(NC(=O)c2csc(-c3cn4ccncc4n3)n2)c1[C@@H]1CC[C@@H](N)[C@H](F)CO1 [Example 125, N-(5-((2S,5R,6S)-5-amino-6-fluorooxepan-2-yl)-1-methyl-1H-pyrazol-4-yl)-2-(imidazo[1,2-a]pyrazin-2-yl)thiazole-4-carboxamide] | 32.8 nM |  | > 25000 nM | 
N[C@H]1CC[C@H](c2[nH]ncc2NC(=O)c2csc(-c3c(F)cccc3F)n2)OC[C@@H]1F [Example 126, N-(5-((2R,5S,6R)-5-amino-6-fluorooxepan-2-yl)-1H-pyrazol-4-yl)-2-(2,6-difluorophenyl)thiazole-4-carboxamide] | 1.48 nM |  | 8000 nM | 
Cc1cccnc1-c1nc(C(=O)Nc2cn[nH]c2[C@H]2CC[C@H](N)[C@@H](F)CO2)cs1 [Example 127, N-(5-((2R,5S,6R)-5-amino-6-fluorooxepan-2-yl)-1H-pyrazol-4-yl)-2-(3-methylpyridin-2-yl)thiazole-4-carboxamide] | 1.1 nM |  | 10800 nM | 
Cc1cccnc1-c1nc(C(=O)Nc2cn[nH]c2[C@@H]2CC[C@@H](N)[C@H](F)CO2)cs1 [Example 128, N-(5-((2S,5R,6S)-5-amino-6-fluorooxepan-2-yl)-1H-pyrazol-4-yl)-2-(3-methylpyridin-2-yl)thiazole-4-carboxamide] | 0.777 nM |  | 3000 nM | 
N[C@@H]1CC[C@@H](c2[nH]ncc2NC(=O)c2csc(-c3c(F)cccc3F)n2)OC[C@H]1F [Example 129, N-(5-((2S,5R,6S)-5-amino-6-fluorooxepan-2-yl)-1H-pyrazol-4-yl)-2-(2,6-difluorophenyl)thiazole-4-carboxamide] | 0.958 nM |  | 7300 nM | 
